Laboratory results taken from ChEMBL document CHEMBL4043237, “Heliotropiumides A and B, new phenolamides with N-carbamoyl putrescine moiety from Heliotropium foertherianum collected in Hawaii and their biological activities” (Bioorg Med Chem Lett, 2017).
pIC50: −log10 of the molar value. The source made the active and inactive calls. The rule behind the calls is not given here.

Tests used:
A2780 = test: Cytotoxicity against human A2780 cells assessed as reduction in cell viability at 20 ug/ml after 72 hrs by CyQuant dye based assay; assay type: functional
Homo sapiens = species: Homo sapiens; test: Inhibition of TNFalpha-induced NFkappaB activation in HEK293 cells at 40 uM after 6 hrs by luciferase reporter gene assay relative to control; assay type: cell-based
Escherichia coli = test: Antibacterial activity against Escherichia coli; assay type: functional
Pseudomonas aeruginosa = test: Antibacterial activity against Pseudomonas aeruginosa; assay type: functional
Staphylococcus aureus = test: Antibacterial activity against Staphylococcus aureus; assay type: functional
Bacillus subtilis = test: Antibacterial activity against Bacillus subtilis; assay type: functional
Penicillium chrysogenum = test: Antifungal activity against Penicillium chrysogenum; assay type: functional
Aspergillus niger = test: Antifungal activity against Aspergillus niger; assay type: functional
Paecilomyces lilacinus = test: Antifungal activity against Paecilomyces lilacinus; assay type: functional; details: Purpureocillium lilacinum
Fusarium graminearum = test: Antifungal activity against Fusarium graminearum; assay type: functional
Sus scrofa = species: Sus scrofa; test: Displacement of [3H]MLA from alpha7* nAChR in pig adrenal membranes; assay type: cell membranes
[1] = biological target: Neuronal acetylcholine receptor; alpha4/beta2 (Rattus norvegicus) (UniProt P09483+P12390); test: Displacement of [3H]epibatidine from alpha4beta2* nAChR in Sprague-Dawley rat forebrain membranes; details: Membrane
[2] = biological target: Neuronal acetylcholine receptor; alpha3/beta4 (Rattus norvegicus) (UniProt P04757+P12392); test: Displacement of [3H]epibatidine from alpha3beta4* nAChR in Sprague-Dawley rat forebrain membranes; details: Membrane
Tetronarce californica = test: Displacement of [3H]epibatidine from (alpha1)2beta1gammadelta nAChR in Torpedo californica electroplax membranes
[3] = Inhibition of TNFalpha-induced NFkappaB activation in HEK293 cells after 6 hrs by luciferase reporter gene assay; assay type: cell-based; details: Homo sapiens, HEK293, 6 h

| Compound | Activity (A2780) | inhibition (Homo sapiens) | Activity (Escherichia coli) | Activity (Pseudomonas aeruginosa) | Activity (Staphylococcus aureus) | Activity (Bacillus subtilis) | Activity (Penicillium chrysogenum) | Activity (Aspergillus niger) | Activity (Paecilomyces lilacinus) | Activity (Fusarium graminearum) | inhibition (Sus scrofa) | inhibition [1] | inhibition [2] | inhibition (Tetronarce californica) | pIC50 [3] |
| --- | --- | --- | --- | --- | --- | --- | --- | --- | --- | --- | --- | --- | --- | --- | --- |
| COc1cc([C@H]2Oc3c(OC)cc(/C=C/C(=O)NCCCCNC(N)=O)cc3[C@@H]2CO)ccc1O | inactive | inactive | inactive | inactive | inactive | inactive | inactive | inactive | inactive | inactive | inactive | inactive | inactive | inactive | – |
| COc1cc(/C=C/C(=O)NCCCCNC(N)=O)ccc1O | inactive | > 60% | inactive | inactive | inactive | inactive | inactive | inactive | inactive | inactive | inactive | inactive | inactive | inactive | 4.44 |
